Source: patent publication US20230416330A1, “Optimized GIP Peptide Analogues” (Antag Therapeutics ApS, priority 2019, published 2023)
Non-standard residues stand in square brackets, D forms with d. Residues, ends and D or L forms follow the SMILES beside them. Groups on a side chain read outwards from the residue. *: point of attachment. C16 diacid = O=C(O)CCCCCCCCCCCCCCC(=O)*; Aib = CC(C)(N)C(=O)O

What was measured:
[1] = Physical stability: fibril formation in Thioflavin T (ThT) assay with agitation; format: physicochemical; details: 1 mg/ml, TFA, Phosphate (7.4); 25° C., agitation
Experimental: Continuous measurement of the fluorescence emission at 486 nm can be used as a measure of fibrillation behavior of peptides and proteins. The time until onset of fibrillation or fibrillation lag time is estimated here by defining the lag time (Tlag) as the point in time where the signal relative to the pre-transition baseline has reached 10% of the post-transition baseline.
50 mM sodium phosphate buffer for dissolving some samples was prepared in ultrapure water (Milli-Q® Reference A+ System, Merck) with a resistivity of 18.2 MΩ·cm. The buffer was adjusted to pH 7.4 and filtered.
The ultrapure water (MilliQ) for dissolving some samples was adjusted to pH 7.4 with NaOH and filtered prior to sample preparation.
(§1) Peptides were either dissolved in sodium phosphate buffer (50 mM, pH 7.4, filtered) or dissolved in ultrapure (MilliQ) water (adjusted to pH 7.4 with NaOH, filtered) (see Table 3). All peptide samples were prepared to a concentration of 1, 5, 7.5 or 15 mg/ml. All samples, with the exception of reference peptides GIP(3-30), AT158, and AT482 dissolved readily and produced clear and colorless solutions with gentle mixing. Peptide samples were subsequently filtered through 0.22 μm nylon filters (Q-Max® RR syringe filter, 13 mm, Frisenette, DK) to produce particle-free solutions. All samples were added to a 96-well plate reader for the ThT assay at t=0.
For each sample, […] ThT (1 mM) was added to 1.2 mL peptide solution. From this sample mixture, an amount of 200 uL/well was pipetted into four or five wells (n=4 or 5). Blank samples (buffer+ThT) were also included. One 3 mm silica bead was added to each well containing samples and the plate was subjected to orbital rotation at 300 rpm to agitate and stress the samples. The temperature was kept at 25° C. throughout the measurement.

[2] = Solubility by visual inspection of peptide solutions; format: physicochemical; details: 1 mg/ml, TFA, Phosphate (7.4)
Experimental: as §1
Clear visual appearance may be taken as an indicator of the immediate solubility of the peptide. […] Thus, A13Aib and/or N24E substitutions appear to increase solubility.

Row | SMILES | Avr lag time (h) [1] | Visual appearance [2] | Avr lag time [1]
1 | CC[C@H](C)[C@H](NC(=O)[C@H](CCCCN)NC(=O)[C@H](CCC(=O)O)NC(=O)[C@H](CC(C)C)NC(=O)C(C)(C)NC(=O)[C@@H](NC(=O)[C@H](CO)NC(=O)[C@H](Cc1ccc(O)cc1)NC(=O)[C@H](CCC(=O)O)NC(=O)[C@H](CO)NC(=O)[C@@H](NC(=O)[C@H](Cc1ccccc1)NC(=O)[C@@H](NC(=O)CNC(=O)[C@@H](N)CCC(=O)O)[C@@H](C)O)[C@@H](C)CC)[C@@H](C)CC)C(=O)N[C@@H](CCCCNC(=O)[C@H](C)NC(=O)[C@H](CCC(=O)O)NC(=O)[C@H](CC(C)C)NC(=O)[C@H](C)NC(=O)CCCCCCCCCCCCCCC(=O)O)C(=O)N[C@@H](CCC(N)=O)C(=O)N[C@@H](CCC(N)=O)C(=O)N[C@@H](CCC(=O)O)C(=O)N[C@@H](Cc1ccccc1)C(=O)N[C@H](C(=O)N[C@@H](CCC(=O)O)C(=O)N[C@@H](Cc1c[nH]c2ccccc12)C(=O)N[C@@H](CC(C)C)C(=O)N[C@@H](CC(C)C)C(=O)N[C@@H](C)C(=O)N[C@@H](CCC(N)=O)C(=O)N[C@@H](CCCCN)C(=O)N1CCC[C@H]1C(=O)N[C@@H](CO)C(=O)N[C@@H](CO)C(=O)NCC(=O)N[C@@H](C)C(=O)N1CCC[C@H]1C(=O)N1CCC[C@H]1C(=O)N1CCC[C@H]1C(=O)N[C@@H](CO)C(=O)O)C(C)C [AT725] (H-EGTFISEYSI[Aib]LEKIK([Ala-Glu-Leu-Ala-C16 diacid])QQEFVEWLLAQKPSSGAPPPS-OH; N-terminus assumed) | fnd (Fnd = fibrils not detected within experiment time (96 hours) with agitation.) | Clear | –
2 | CC[C@H](C)[C@H](NC(=O)[C@H](CO)NC(=O)[C@H](Cc1ccc(O)cc1)NC(=O)[C@H](CC(=O)O)NC(=O)[C@H](CO)NC(=O)[C@@H](NC(=O)[C@H](Cc1ccccc1)NC(=O)[C@@H](NC(=O)CNC(=O)[C@@H](N)CCC(=O)O)[C@@H](C)O)[C@@H](C)CC)C(=O)N[C@@H](C)C(=O)N[C@@H](CCSC)C(=O)N[C@@H](CC(=O)O)C(=O)N[C@@H](CCCCN)C(=O)N[C@@H](CCCCNC(=O)CCCCCCCCCCCCCCC(=O)O)C(=O)N[C@@H](Cc1c[nH]cn1)C(=O)N[C@@H](CCC(N)=O)C(=O)N[C@@H](CCC(N)=O)C(=O)N[C@@H](CC(=O)O)C(=O)N[C@@H](Cc1ccccc1)C(=O)N[C@H](C(=O)N[C@@H](CCC(=O)O)C(=O)N[C@@H](Cc1c[nH]c2ccccc12)C(=O)N[C@@H](CC(C)C)C(=O)N[C@@H](CC(C)C)C(=O)N[C@@H](C)C(=O)N[C@@H](CCC(N)=O)C(=O)N[C@@H](CCCCN)C(=O)N1CCC[C@H]1C(=O)N[C@@H](CO)C(=O)N[C@@H](CO)C(=O)NCC(=O)N[C@@H](C)C(=O)N1CCC[C@H]1C(=O)N1CCC[C@H]1C(=O)N1CCC[C@H]1C(=O)N[C@@H](CO)C(=O)O)C(C)C [AT742] (H-EGTFISDYSIAMDKK(C16 diacid)HQQDFVEWLLAQKPSSGAPPPS-OH; N-terminus assumed) | fnd (Fnd = fibrils not detected within experiment time (96 hours) with agitation.) | Clear | –
3 | CC[C@H](C)[C@H](NC(=O)[C@H](CO)NC(=O)[C@H](Cc1ccc(O)cc1)NC(=O)[C@H](CC(=O)O)NC(=O)[C@H](CO)NC(=O)[C@@H](NC(=O)[C@H](Cc1ccccc1)NC(=O)[C@@H](NC(=O)CNC(=O)[C@@H](N)CCC(=O)O)[C@@H](C)O)[C@@H](C)CC)C(=O)N[C@@H](C)C(=O)N[C@@H](CCSC)C(=O)N[C@@H](CC(=O)O)C(=O)N[C@@H](CCCCN)C(=O)N[C@H](C(=O)N[C@@H](Cc1c[nH]cn1)C(=O)N[C@@H](CCC(N)=O)C(=O)N[C@@H](CCC(N)=O)C(=O)N[C@@H](CC(=O)O)C(=O)N[C@@H](Cc1ccccc1)C(=O)N[C@H](C(=O)N[C@@H](CCC(=O)O)C(=O)N[C@@H](Cc1c[nH]c2ccccc12)C(=O)N[C@@H](CC(C)C)C(=O)N[C@@H](CC(C)C)C(=O)N[C@@H](C)C(=O)N[C@@H](CCC(N)=O)C(=O)N[C@@H](CCCCN)C(=O)N1CCC[C@H]1C(=O)N[C@@H](CO)C(=O)N[C@@H](CO)C(=O)NCC(=O)N[C@@H](C)C(=O)N1CCC[C@H]1C(=O)N1CCC[C@H]1C(=O)N1CCC[C@H]1C(=O)N[C@@H](CO)C(=O)N[C@@H](CCCCNC(=O)CCCCCCCCCCCCCCC(=O)O)C(=O)O)C(C)C)[C@@H](C)CC [AT744] (H-EGTFISDYSIAMDKIHQQDFVEWLLAQKPSSGAPPPSK(C16 diacid)-OH; N-terminus assumed) | fnd (Fnd = fibrils not detected within experiment time (96 hours) with agitation.) | Clear | –
4 | CC[C@H](C)[C@H](NC(=O)[C@H](CO)NC(=O)[C@H](Cc1ccc(O)cc1)NC(=O)[C@H](CC(=O)O)NC(=O)[C@H](CO)NC(=O)[C@@H](NC(=O)[C@H](Cc1ccccc1)NC(=O)[C@@H](NC(=O)CNC(=O)[C@@H](N)CCC(=O)O)[C@@H](C)O)[C@@H](C)CC)C(=O)N[C@@H](C)C(=O)N[C@@H](CCSC)C(=O)N[C@@H](CC(=O)O)C(=O)N[C@@H](CCCCN)C(=O)N[C@H](C(=O)N[C@@H](CCCCNC(=O)CCCCCCCCCCCCCCC(=O)O)C(=O)N[C@@H](CCC(N)=O)C(=O)N[C@@H](CCC(N)=O)C(=O)N[C@@H](C)C(=O)N[C@@H](Cc1ccccc1)C(=O)N[C@H](C(=O)N[C@@H](CCC(=O)O)C(=O)N[C@@H](Cc1c[nH]c2ccccc12)C(=O)N[C@@H](CC(C)C)C(=O)N[C@@H](CC(C)C)C(=O)N[C@@H](C)C(=O)N[C@@H](CCC(N)=O)C(=O)N[C@@H](CCCCN)C(=O)N1CCC[C@H]1C(=O)N[C@@H](CO)C(=O)N[C@@H](CO)C(=O)NCC(=O)N[C@@H](C)C(=O)N1CCC[C@H]1C(=O)N1CCC[C@H]1C(=O)N1CCC[C@H]1C(=O)N[C@@H](CO)C(=O)O)C(C)C)[C@@H](C)CC [AT745] (H-EGTFISDYSIAMDKIK(C16 diacid)QQAFVEWLLAQKPSSGAPPPS-OH; N-terminus assumed) | – | Clear | <24 h
5 | CC[C@H](C)[C@H](NC(=O)[C@H](C)NC(=O)[C@H](Cc1ccc(O)cc1)NC(=O)[C@H](CC(=O)O)NC(=O)[C@H](CO)NC(=O)[C@@H](NC(=O)[C@H](Cc1ccccc1)NC(=O)[C@@H](NC(=O)CNC(=O)[C@@H](N)CCC(=O)O)[C@@H](C)O)[C@@H](C)CC)C(=O)N[C@@H](C)C(=O)N[C@@H](CCSC)C(=O)N[C@@H](CC(=O)O)C(=O)N[C@@H](CCCCN)C(=O)N[C@H](C(=O)N[C@@H](CCCCNC(=O)CCCCCCCCCCCCCCC(=O)O)C(=O)N[C@@H](CCC(N)=O)C(=O)N[C@@H](CCC(N)=O)C(=O)N[C@@H](CC(=O)O)C(=O)N[C@@H](Cc1ccccc1)C(=O)N[C@H](C(=O)N[C@@H](CCC(=O)O)C(=O)N[C@@H](Cc1c[nH]c2ccccc12)C(=O)N[C@@H](CC(C)C)C(=O)N[C@@H](CC(C)C)C(=O)N[C@@H](C)C(=O)N[C@@H](CCC(N)=O)C(=O)N[C@@H](CCCCN)C(=O)N1CCC[C@H]1C(=O)N[C@@H](CO)C(=O)N[C@@H](CO)C(=O)NCC(=O)N[C@@H](C)C(=O)N1CCC[C@H]1C(=O)N1CCC[C@H]1C(=O)N1CCC[C@H]1C(=O)N[C@@H](CO)C(=O)O)C(C)C)[C@@H](C)CC [AT746] (H-EGTFISDYAIAMDKIK(C16 diacid)QQDFVEWLLAQKPSSGAPPPS-OH; N-terminus assumed) | fnd (Fnd = fibrils not detected within experiment time (96 hours) with agitation.) | Clear | –
